Assay results from patent US20240343729A1 (priority 2021, published 2024).

Legend:
Human PDE10A2 [1] = biological target: T1, Human PDE10A2 (Homo sapiens (Human), UniProt Q9Y233); assay: biochemical; type: biochemical; details: human PDE10A2 0.25 nM, cGMP 3 μM
Description: Semi Log compound dilutions starting at a final concentration of 50 μM were dispensed into a black 384 well plate alongside, DMSO and an Inhibited control using the Echo Acoustic dispenser. […] Data was analysed using a 4-parameter fit.

Human PDE10A2 [2] = biological target: T1, Human PDE10A2; assay: cell-based; details: Forskolin 10 μM; read-out: cAMP HTRF Assay in HEK 293 rhPDE10A2 cell line (pIC50) (converted)
Description: Semi log compound dilutions starting at a final concentration of 10 μM were dispensed into a white 384 well plate, alongside DMSO and an Inhibited control using the Tecan D300e digital dispenser. HEK 293 cells overexpressing recombinant human PDE10A2 were seeded on top of the compounds at 2500 cells/well in a volume 5 μL/well. The plate was incubated at room temperature for 60 minutes. To induce endogenous cAMP, 5 μL/well of Forskolin at a final assay concentration of 10 μM was added to the plate. The plate was incubated at room temperature for a further 45 minutes. cAMP HTRF detection reagents were added, and the plate was incubated for 60 minutes at room temperature. […] Data was analysed using a 4-parameter fit.

T1 sequence (Q9Y233 267-1055): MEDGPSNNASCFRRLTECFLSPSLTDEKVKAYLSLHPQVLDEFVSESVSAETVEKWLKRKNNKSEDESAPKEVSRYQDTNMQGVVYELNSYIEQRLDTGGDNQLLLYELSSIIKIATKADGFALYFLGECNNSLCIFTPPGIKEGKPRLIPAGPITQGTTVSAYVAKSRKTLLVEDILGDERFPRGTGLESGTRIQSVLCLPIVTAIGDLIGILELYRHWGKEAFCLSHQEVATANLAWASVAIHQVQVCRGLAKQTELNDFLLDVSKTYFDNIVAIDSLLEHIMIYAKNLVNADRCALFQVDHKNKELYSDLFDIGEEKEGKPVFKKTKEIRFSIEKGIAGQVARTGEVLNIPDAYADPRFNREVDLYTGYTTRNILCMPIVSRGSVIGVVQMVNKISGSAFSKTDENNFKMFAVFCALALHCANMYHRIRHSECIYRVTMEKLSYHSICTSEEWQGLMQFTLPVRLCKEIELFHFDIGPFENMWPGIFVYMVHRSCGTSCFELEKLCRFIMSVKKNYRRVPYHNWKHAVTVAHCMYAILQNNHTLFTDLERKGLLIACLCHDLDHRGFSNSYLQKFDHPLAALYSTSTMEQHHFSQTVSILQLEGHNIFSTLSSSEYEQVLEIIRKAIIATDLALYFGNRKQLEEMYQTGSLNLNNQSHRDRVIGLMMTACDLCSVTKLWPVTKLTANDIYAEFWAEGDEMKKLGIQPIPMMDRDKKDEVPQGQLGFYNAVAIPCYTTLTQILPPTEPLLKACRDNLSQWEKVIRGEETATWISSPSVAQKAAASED

Row | SMILES | PDE10A2 Phosphate Sensor Enzyme Assay (pIC50) (Human PDE10A2 [1]) | IC50 (Human PDE10A2 [2])
1 | C[C@H]1COCCN1c1nc(C#Cc2nc(-c3ccccc3)c[nH]2)nc2c1ncn2C [Example 30, (S)-3-Methyl-4-(9-methyl-2-((4-phenyl-1H-imidazol-2-yl)ethynyl)-9H-purin-6-yl)morpholine] | 8.97 | > 1000 nM
2 | Cn1cc(-c2ccccc2)nc1C#Cc1nc(N2C[C@H]3COC[C@H]3C2)c2cnn(C)c2n1 [Example 23, (3aR,6aS)-5-(1-Methyl-6-((1-methyl-4-phenyl-1H-imidazol-2-yl)ethynyl)-1H-pyrazolo[3,4-d]pyrimidin-4-yl)hexahydro-1H-furo[3,4-c]pyrrole] | 10.40 | 0.245 nM
3 | Cn1cnc2c(N3C[C@H]4COC[C@H]4C3)nc(C#Cc3nc(-c4cccnc4)c[nH]3)nc21 [Example 31, (3aR,6aS)-5-(9-Methyl-2-((4-(pyridin-3-yl)-1H-imidazol-2-yl)ethynyl)-9H-purin-6-yl)hexahydro-1H-furo[3,4-c]pyrrole] | 8.95 | 3.98 nM
4 | C[C@H]1COCCN1c1nc(C#Cc2nc(-c3ccccc3)cn2C)nc2c1CCNC2 [Example 13, (3S)-3-Methyl-4-[2-[2-(1-methyl-4-phenyl-imidazol-2-yl)ethynyl]-5,6,7,8-tetrahydropyrido[3,4-d]pyrimidin-4-yl]morpholine] | 8.92 | > 1000 nM
5 | Cn1cnc2c(N3CC4(COC4)C3)nc(C#Cc3nc(-c4ccccc4)cn3CC3CCOCC3)nc21 [Example 4, 6-[9-Methyl-2-[2-[4-phenyl-1-(tetrahydropyran-4-ylmethyl)imidazol-2-yl]ethynyl]purin-6-yl]-2-oxa-6-azaspiro[3.3]heptane] | 9.00 | 6.31 nM
6 | Cn1cc(-c2cccnc2)nc1C#Cc1nc(N2CC3(COC3)C2)c2ncn(C)c2n1 [Example 2, 6-[9-Methyl-2-[2-[1-methyl-4-(3-pyridyl)imidazol-2-yl]ethynyl]purin-6-yl]-2-oxa-6-azaspiro[3.3]heptane] | 8.62 | 1.55 nM
7 | Cn1cnc2c(N3C[C@H]4COC[C@H]4C3)nc(C#Cc3nc(-c4ccccc4)c[nH]3)nc21 [Example 28, (3aR,6aS)-5-(9-Methyl-2-((4-phenyl-1H-imidazol-2-yl)ethynyl)-9H-purin-6-yl)hexahydro-1H-furo[3,4-c]pyrrole] | 9.34 | 33.9 nM
8 | Cn1cc(-c2ccccc2)nc1C#Cc1nc(N2CC3(COC3)C2)c2cnn(CC3CNC3)c2n1 [Example 8, 6-[1-(Azetidin-3-ylmethyl)-6-[2-(1-methyl-4-phenyl-imidazol-2-yl)ethynyl]pyrazolo[3,4-d]pyrimidin-4-yl]-2-oxa-6-azaspiro[3.3]heptane] | 8.45 | 5.75 nM
9 | Cn1cc(-c2ccccc2)nc1C#Cc1nc(N2C[C@H]3COC[C@H]3C2)c2ncn(C)c2n1 [Example 20, (3aR,6aS)-5-(9-Methyl-2-((1-methyl-4-phenyl-1H-imidazol-2-yl)ethynyl)-9H-purin-6-yl)hexahydro-1H-furo[3,4-c]pyrrole] | 9.53 | 8.71 nM
10 | Cn1cnc2c(N3CC4(COC4)C3)nc(C#Cc3nc(-c4ccccc4)c[nH]3)nc21 [Example 7, 6-[9-Methyl-2-[2-(4-phenyl-1H-imidazol-2-yl)ethynyl]purin-6-yl]-2-oxa-6-azaspiro[3.3]heptane] | 9.22 | 2.95 nM
11 | C(#Cc1nc(-c2ccccc2)c[nH]1)c1nc(N2C[C@H]3COC[C@H]3C2)c2cnn(C3COC3)c2n1 [Example 27, (3aR,6aS)-5-(1-(Oxetan-3-yl)-6-((4-phenyl-1H-imidazol-2-yl)ethynyl)-1H-pyrazolo[3,4-d]pyrimidin-4-yl)hexahydro-1H-furo[3,4-c]pyrrole] | 9.49 | 32.4 nM
